Experimental data taken from patent US9637491B2, “Pyrazolo[4,3-D]pyrimidines as kinase inhibitors” (Origenis GmbH, priority 2012, dated 2017).

Target: T1, SYK kinase (Homo sapiens, UniProt P43405)
T1 construct: purchased Invitrogen, Carlsbad
Assay: SYK assay (OMNIA Kinase Assay, Invitrogen)
Type: biochemical
Conditions: SYK Activities; 1 mM ATP, 10 μM Omnia Peptide Substrate Tyr 7, 30° C.
Procedure, shortened: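 SYK was added last to start phosphorylation of a chelation-enhanced SOX peptide substrate (10 μM) in the presence of 1 mM ATP and 0.2 mM DTT at 30° C. Kinetic readings at λex 360/λem 485 nm over 30 min gave velocities, fitted sigmoidally against compound concentration to give IC50.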

Row | SMILES | IC50 [nM]
1 | OCCn1cc(Nc2nc(-c3cocn3)nc3cn[nH]c23)cn1 [Example 247, 2-(4-((5-(oxazol-4-yl)-1H-pyrazolo[4,3-d]pyrimidin-7-yl)amino)-1H-pyrazol-1-yl)ethan-1-ol] | 10 to 100
2 | c1nn(C2CCNC2)cc1Nc1nc(C2C3CCCCC32)nc2cn[nH]c12 (stereo not shown) [Example 474, 5-(bicyclo[4.1.0]heptan-7-yl)-N-(1-(pyrrolidin-3-yl)-1H-pyrazol-4-yl)-1H-pyrazolo[4,3-d]pyrimidin-7-amine] | 100 to 1000
3 | c1ccc(Cn2cc(-c3nc(Nc4ccc(N5CCOCC5)cc4)c4[nH]ncc4n3)cn2)cc1 [Example 460, 5-(1-benzyl-1H-pyrazol-4-yl)-N-(4-morpholinophenyl)-1H-pyrazolo[4,3-d]pyrimidin-7-amine] | 10 to 100
4 | CC(C)Cn1cc(Nc2nc(-c3cnn(C)c3)nc3cn[nH]c23)cn1 [Example 437, N-(1-isobutyl-1H-pyrazol-4-yl)-5-(1-methyl-1H-pyrazol-4-yl)-1H-pyrazolo[4,3-d]pyrimidin-7-amine] | 10 to 100

Next, values leading:

Row | IC50 [nM] | SMILES
5 | 10 to 100 | OC1CCN(c2ccc(Nc3nc(-c4c(F)cccc4F)nc4cn[nH]c34)cc2)CC1 [Example 522, 1-(4-((5-(2,6-difluorophenyl)-1H-pyrazolo[4,3-d]pyrimidin-7-yl)amino)phenyl)piperidin-4-ol]
6 | < 10 | c1cc(-c2nc(Nc3ccc(N4CCOCC4)cc3)c3[nH]ncc3n2)on1 [Example 69, 5-(isoxazol-5-yl)-N-(4-morpholinophenyl)-1H-pyrazolo[4,3-d]pyrimidin-7-amine]
7 | < 10 | CC(C)(C)N1CCN(c2ccc(Nc3nc(-c4ccc5cn[nH]c5c4)nc4cn[nH]c34)cc2)CC1 [Example 45, N-(4-(4-(tert-butyl)piperazin-1-yl)phenyl)-5-(1H-indazol-6-yl)-1H-pyrazolo[4,3-d]pyrimidin-7-amine]
